Several values for one entry are separate records, joined by “and”; a condition that tells them apart may be missing. Identical values can stand only once. Like-named read-outs stand apart in the source and are kept apart here.
Key:
[1] = test system: mammary adenocarcinoma-16/C/Adr; assay: Test C: evaluation against early stage mammary adenocarcinoma-16/C/Adr; format: in vivo
Excerpt: Early stage mammary adenocarcinoma-16/C/Adr is a p-glycoprotein negative multidrug resistant tumor. C3H female mice were obtained from NCI-Kingston-CRL (D.O.B. Apr. 3, 2000; D.O.A. May 16, 2000). […] The control animals (Cage #1) received no treatment.

colon carcinoma 26 = details: for Toxicity of dose group: 400 mg/kg, omitted from Table 8
Method: In this trial the R-enantiomers of XK-469, compound 22c, and compound 22b were compared against advanced staged colon carcinoma 26 in female Balb/c mice. […] Cage #2 was 22b at 400 mg/kg and Cage #4 was 22c at 400 mg/kg.
The XK469-R, 22b, and 22c compound doses were all prepared the same, using 3% ethanol, 1% POE-80, and 0.5% sodium bicarbonate. The injection volume was 0.2 mu/mouse IV. […] The mice were Balb/c female mice: DOB Feb. 12, 2001; DOA Mar. 27, 2001; DOT Sep. 8, 2001, with an average body weight of 24.7 grams at the start of Rx administration. The tumor was Colon Carcinoma-26 passage 141; date of implant Sep. 8, 2001, and implanted at 30 to 60 mg fragments bilaterally SC. All tumors were 63 to 171 mg on day 6, the day of first Rx.

[2] = test system: pancreatic ductal adenocarcinoma 03
Excerpt: Pancreatic ductal adenocarcinoma-03, B16-melanoma, mammary adenocarcinoma-16/C/Adr, mammary adenocarcinoma-17/Adr, colon adenocarcinoma-26, and mammary adenocarcinoma-16/C were used in the studies.
(§1) Tumors were maintained in the mouse strain of origin C57B1/6 (for Panc03, B16), Balb/c (for Colon 26) and C3H (for the mammary tumors). Tumors were transplanted into the appropriate F1 hybrid (BDF1=C57B1/6 female X DBA/2 male) or the strain of origin for the chemotherapy trials. Individual mouse body weights for each experiment were within 5 grams, and all mice were over 17 grams at the start of therapy. The mice were supplied food and water ad libitum.
(§2) Animals were pooled, implanted subcutaneously with 30 to 60 mg tumor fragments by a 12 gauge trocar on day 0, and again pooled before unselective distribution to the various treatment and control groups. For early stage treatment, chemotherapy was started within 1 to 3 days after tumor implantation while the number of cells was relatively small (10^7 to 10^8 cells). For upstaged or advanced staged trials, the tumors were allowed to grow for five or more days before treatment was started. Tumors were measured with a caliper twice weekly. […] Tumor weights are estimated from two-dimensional measurements:
(§3) Tumor weight (in mg)=(a×b^2)/2, where a and b are the tumor length and width in (mm), respectively.
(§4) The following quantitative endpoints were used to assess antitumor activity: • a) Tumor growth delay (T-C value), where T is the median time (in days) required for the treatment group tumors to reach a predetermined size (e.g., 1000 mg), and C is the median time (in days) for the control group tumors to reach the same size. Tumor-free survivors are excluded from these calculations (cures are tabulated separately). This value is an important criterion of antitumor effectiveness because it allows the quantification of tumor cell kill. • b) Calculation of tumor cell kill for subcutaneously (SC) growing tumors, the log10 cell kill was calculated from the following formula:
(§5) The conversion of the T-C values to log10 cell kill is possible because the Td of tumors regrowing post treatment (Rx) approximates the Td values of the tumors in untreated control mice.
In selected cases, both for historic in vivo evaluation data as well as data presented here, it is of value to compare log kill numbers from trials of markedly different testing schedules. […] It should be noted that an activity rating of +++ to ++++ is needed to effect partial regression (PR) or complete regression (CR) of 100 to 300 mg size masses of most transplanted solid tumors of mice. Thus, an activity rating of + or ++ would not be scored as active by usual clinical criteria. A PR is a reduction in tumor mass to less than 50% of pretreatment size. A CR is a reduction in tumor mass to below palpable size (i.e., reduction to zero detectable mass).
(§6) The T/C value in percent is an indication of antitumor effectiveness: A T/C=0% means no tumor growth. […] A T/C value <10% is considered to indicate highly significant antitumor activity, and is the level used by NCI to justify a clinical trial if toxicity, formulation, and certain other requirements are met (termed DN-2 level activity).
Female BDFl mice (obtained from NCI-Raleigh) (date of birth (hereinafter D.O.B.) Mar. 27, 2000; date of arrival (hereinafter D.O.A.) Apr. 9, 2000) were implanted (tumor implant date (hereinafter D.O.T.) Mar. 17, 2000) with pancreatic ductal adenocarcinoma 03 tumor, divided into treatment and control groups.

B16 melanoma [3] = test system: B16 melanoma
Excerpt: as §1, §2, §3, §4, §5
It should be noted that an activity rating of +++ to ++++ is needed to effect partial regression (PR) or complete regression (CR) of 100 to 300 mg size masses of most transplanted solid tumors of mice. Thus, an activity rating of + or ++ would not be scored as active by usual clinical criteria. A PR is a reduction in tumor mass to less than 50% of pretreatment size. A CR is a reduction in tumor mass to below palpable size (i.e., reduction to zero detectable mass).
as §6
The mice were divided into a control group and three experimental groups. The control group (Cage #1) received no treatment.
A −20% body weight loss is considered excessively toxic by N.C.I. standards.

[4] = test system: mammary adenocarcinoma-17/Adr; assay: Test D: racemic compound 22c against early stage mammary adenocarcinoma-17/Adr; format: in vivo; details: for % Body Wt Loss at Nadir / % T/C mass / Activity Rating / Day of Nadir / Drug Deaths / Growth Delay / Log Kill / Median Tumor Mass on Day 10 (Range) / Tumor Free day-42: days 1,2,3,6,7,8
Method: Female C3H/HeN (MTV-neg) mice were obtained from N.C.I. Frederick (D.O.B. was Oct. 9, 2000; D.O.A. was Nov. 14, 2000). […] Then, P.B.S. was added, and the pH was adjusted to 7 with HCl. 0.2 ml per injection was administered IV.

B16 melanoma [5] = details: historic, B16 melanoma implanted subcutaneously (SC); cited from earlier work
[6] = test system: pancreatic ductal adenocarcinoma 03; details: historic; cited from earlier work
[7] = Cage 2, IV 42 mg/kg twice daily days 1-3 and 11-13, total 504 mg/kg
[8] = Cage 3, IV 27 mg/kg twice daily days 1-3 and 11-13, total 324 mg/kg
[9] = Cg 3, IV 50 mg/kg/inj days 6,8,10,13,15, total 250 mg/kg
[10] = Cage 7, IV daily days 3-9, 7 inj, total 336 mg/kg
[11] = Cage 2, IV 40 mg/kg/inj days 1-4, 8 inj, total 320 mg/kg
[12] = Cage 3, IV 50 mg/kg/inj daily days 1-5, total 250 mg/kg
[13] = Cage 4, IV 30 mg/kg/inj daily days 1-6, total 180 mg/kg
[14] = Cage 3, IV 50, 62.5, then 60 mg/kg/inj, total 352.5 mg/kg
[15] = Cage 4, IV 30, 37.5, then 36 mg/kg/inj, total 211.5 mg/kg
[16] = Cg 5, IV 50 mg/kg/inj days 6,8,10,13,15, total 250 mg/kg

Compound: CC(Oc1ccc(Oc2ccc3ccc(Cl)cc3n2)cc1)C(=O)O (racemic) [Compound 22b, 2-[4-(7-chloroquinolin-2-yloxy)phenoxy]propanoic acid]
- % Body Wt Loss at Nadir [1, 7]: −15%
- % T/C mass [1, 7]: 0%
- Activity Rating [1, 7]: +++ (2.0-2.8)
- Day of Nadir [1, 7]: 7 days
- Day of full recovery of body weight [1, 7]: 12 days
- Drug Deaths [1, 7]: 0/6
- Growth Delay [1, 7]: 8.0 days
- Log Kill [1, 7]: 2.0
- Median Tumor Mass on Day 11 (Range) [1, 7]: 0 (0-308) mg
- Tumor Free day-18 [1, 7]: 0/6
- Neuromuscular toxicity ([1]; Cage 2, IV 42 mg/kg twice daily, lasting about ten minutes post injection): modest neuromuscular gait disturbance
- Neuromuscular toxicity ([1]; Cage 3, IV 27 mg/kg twice daily): insignificant gait disturbance
- % Body Wt Loss at Nadir [1, 8]: −1.1%
- % T/C mass [1, 8]: 53%
- Activity Rating [1, 8]: inactive
- Day of Nadir [1, 8]: 7 days
- Day of full recovery of body weight [1, 8]: 8 days
- Drug Deaths [1, 8]: 0/6
- Growth Delay [1, 8]: 2.25 days
- Log Kill [1, 8]: 0.6
- Median Tumor Mass on Day 11 (Range) [1, 8]: 741 (516-1199) mg
- Tumor Free day-18 [1, 8]: 0/6
- Toxicity of dose group (colon carcinoma 26; Cage 2): toxic
- Activity Rating (colon carcinoma 26; [9]): ++ (1.3-1.9)
- CR's (colon carcinoma 26; [9]): 1/6
- Log Kill (colon carcinoma 26; [9]): 1.4
- % T/C mass [2, 10]: 0%
- Activity Rating [2, 10]: +++ (2.0-2.8)
- Drug Deaths [2, 10]: 0/5
- Growth Delay In Days [2, 10]: 17.5 days
- Log Kill [2, 10]: 2.6
- Median Tumor Mass on Day 14 (Range) [2, 10]: 0 (0-126) mg
- Tumor Free day-37 [2, 10]: 0/5
- % Body Wt Loss at Nadir ([2]; mouse, in vivo): −8.9%
- Day of Nadir ([2]; mouse, in vivo): 11 days
- % T/C mass (B16 melanoma [3]; [11]): 0%
- Cause of death (B16 melanoma [3]; [11]): marrow toxicity
- Drug Deaths (B16 melanoma [3]; [11]): 1/5
- Growth Delay (B16 melanoma [3]; [11]): 12.5 days
- Log Kill (B16 melanoma [3]; [11]): 3.8
- Median Tumor Mass on Day 9 (Range) (B16 melanoma [3]; [11]): 0 (all zeros) mg
- Tumor Free day-24 (B16 melanoma [3]; [11]): 0.5
- Activity Rating (B16 melanoma [3]; Cage 2, IV 40 mg/kg/inj days 1-4, 8 inj, total 320 mg/kg, listed as 22b (racemic)): toxic
- % T/C mass (B16 melanoma [3]; [12]): 0%
- Activity Rating (B16 melanoma [3]; [12]): +++ (2.0-2.8)
- Drug Deaths (B16 melanoma [3]; [12]): 0/5
- Growth Delay (B16 melanoma [3]; [12]): 8.5 days
- Log Kill (B16 melanoma [3]; [12]): 2.6
- Median Tumor Mass on Day 9 (Range) (B16 melanoma [3]; [12]): 0 (all zeros) mg
- Tumor Free day-24 (B16 melanoma [3]; [12]): 0/5
- % T/C mass (B16 melanoma [3]; [13]): 15.6%
- Activity Rating (B16 melanoma [3]; [13]): ++ (1.3-1.9)
- Drug Deaths (B16 melanoma [3]; [13]): 0/5
- Growth Delay (B16 melanoma [3]; [13]): 6.0 days
- Log Kill (B16 melanoma [3]; [13]): 1.8
- Median Tumor Mass on Day 9 (Range) (B16 melanoma [3]; [13]): 221 (63-334) mg
- Tumor Free day-24 (B16 melanoma [3]; [13]): 0/5
- Day of Nadir (B16 melanoma [3]; mouse, in vivo): 8 days
- Day of full recovery of body weight (B16 melanoma [3]; mouse, in vivo): 11 days and 9 days
- Duration of neuromuscular toxicity post injection (B16 melanoma [3]; mouse, in vivo): over 20 minutes
- Neuromuscular toxicity (slowing of nerve conduction) (B16 melanoma [3]; mouse, in vivo): substantial post injection neuromuscular toxicity and mild

Compound: CC(Oc1ccc(Oc2ccc3ccc(Br)cc3n2)cc1)C(=O)O (racemic) [Racemic 22c, 2-[4-(7-bromoquinolin-2-yloxy)phenoxy]propanoic acid]
- Duration of slowing of nerve conduction ([4]; Cage 3, 60 to 62.5 mg/kg dose IV): approximately 10 minutes
- Neuromuscular toxicity ([4]; Cage 3, 60 to 62.5 mg/kg dose IV, mild gait disturbance): modest slowing of nerve conduction
- % Body Wt Loss at Nadir [4, 14]: −5.5%
- % T/C mass [4, 14]: 0%
- Activity Rating [4, 14]: ++++ (>2.8)
- Day of Nadir [4, 14]: 11 days
- Drug Deaths [4, 14]: 0/5
- Growth Delay [4, 14]: 14 days
- Log Kill [4, 14]: 4.2
- Median Tumor Mass on Day 10 (Range) [4, 14]: 0 (0-63) mg
- Tumor Free day-42 [4, 14]: 0/5
- Day tumors reached 1000 mg (range) ([4]; Cage 3, total 352.5 mg/kg IV): 21 (range 19-42) day
- % Body Wt Loss at Nadir [4, 15]: −4.1%
- % T/C mass [4, 15]: 5.6%
- Activity Rating [4, 15]: ++++ (>2.8)
- Day of Nadir [4, 15]: 13 days
- Drug Deaths [4, 15]: 0/5
- Growth Delay [4, 15]: 10 days
- Log Kill [4, 15]: 3.0
- Median Tumor Mass on Day 10 (Range) [4, 15]: 172 (0-344) mg
- Tumor Free day-42 [4, 15]: 0/5
- Neuromuscular toxicity ([4]; Cage 4, IV 30-37.5 mg/kg/inj, total 211.5 mg/kg): no gait disturbance
- Day tumors reached 1000 mg (range) ([4]; Cage 4, total 211.5 mg/kg IV): 17 (range 14-21) day
- Toxicity of dose group (colon carcinoma 26; Cage 4): toxic
- Activity Rating (colon carcinoma 26; [16]): ++++ (>2.8)
- CR's (colon carcinoma 26; [16]): 3/6
- tumor free survivors on day 55 (colon carcinoma 26; [16]): 3/6

Compound: O=NN(CCCl)C(=O)NCCCl [BCNU]
- activity rating (responsiveness of the tumor to standard agents) (B16 melanoma [5]): ++++ (>2.8)

Compound: O=c1[nH]cc(F)c(=O)[nH]1 [Compound 5-FU, 5-FU]
- activity rating (sensitivity of the tumor to standard agents) [6]: + (0.7-1.2)

Compound: CC[C@@]1(O)C(=O)OCc2c1cc1n(c2=O)Cc2cc3ccccc3nc2-1 [camptothecin]
- activity rating (responsiveness of the tumor to standard agents) (B16 melanoma [5]): +or +/−

Compound: CC(=O)O[C@H]1C(=O)[C@@]2(C)[C@H]([C@H](OC(=O)c3ccccc3)[C@]3(O)C[C@H](OC(=O)[C@H](O)[C@@H](NC(=O)c4ccccc4)c4ccccc4)C(C)=C1C3(C)C)[C@]1(OC(C)=O)CO[C@@H]1C[C@@H]2O [taxol]
- activity rating (sensitivity of the tumor to standard agents) [6]: ++++ (>2.8)
- activity rating (responsiveness of the tumor to standard agents) (B16 melanoma [5]): +or +/−

From patent publication US7507749B2, “Antitumor agents” (priority 2001, dated 2009)
